Laboratory results from patent US7094803B2, “Biologically active raspailamide compounds” (Harbor Branch Oceanographic Institution, Inc., priority 2003, dated 2006).

Test system: A549 human lung adenocarcinoma
Assay: Antiproliferative MTT assay, A549 human lung adenocarcinoma cell line
Assay type: cell-based
Settings: A549 adherent cells, 72-h exposure, cytotoxicity
Procedure: Raspailamide A (I) and B (II) were analyzed as to their effect on the proliferation of A549 human lung adenocarcinoma and P388 murine leukemia cell lines. P388 cells were obtained from Dr. R. Camalier, National Cancer Institute, Bethesda, Md., and A549 cells were obtained from American Type Culture Collection, Rockville, Md.
All cell lines are maintained in Roswell Park Memorial Institute (RPMI) medium 1640 supplemented with 100 U/mL penicillin 100 μg/ml streptomycin, 60 μg/ml L-glutamine, 18 mM HEPES, 0.05 mg/mL gentamycin and 10% fetal bovine serum. Cell lines are cultured in plastic tissue culture flasks and kept in an incubator at 37° C. in humidified air containing 5% CO2. […]
A volume of 75 μl of warm growth media containing 5 mg/ml MTT is added to each well, cultures returned to the incubator, and left undisturbed for 3 hours. To spectrophotometrically quantitate formation of reduced formazan, plates are centrifuged (900×g, 5 minutes), culture fluids removed by aspiration, and 200 μl of acidified isopropanol (2 ml concentrated HCl/iter isopropanol) added per well. The absorbance of the resulting solutions is measured at 570 nm with a plate reader (Spectra II (Tecan Laboratories). […]
The two standard drug controls (indicated above) are included in each assay to monitor the drug sensitivity of each of the cell lines and IC50 values are determined for each drug-cell combination.

SMILES | IC50
C=C/C=C/C(C)=C/C(C)C1CC(OC)CC(CC2OC(CC(C)/C=C/C(C)=C/CC(CC(O)CNC(=O)C(=C)OC)OC(N)=O)C(C)(O)CC2C)O1 (centres unmarked) [Raspailamide (II), Raspailamide B] | 0.018 ng/mL
C=C(OC)C(=O)NCC(O)CC(C/C=C(C)/C=C/C(C)CC1OC(CC2CC(OC)CC(C(C)/C=C(C)/C=C/C=C/C)O2)C(C)CC1(C)O)OC(N)=O (centres unmarked) [Raspailamide A (I), Raspailamide A] | 0.046 ng/mL
